Converted amounts (≈) assume the structure as drawn.
Experiments:
Test in all cases: microbe, parasite or virus in culture
Type in all cases: cell-based
[1] = tested on: Francisella tularensis (FT; Gram-negative); settings: read-out: MIC FT
[2] = tested on: Brucella abortus (BAB; Gram-negative); settings: read-out: MIC BAB
[3] = tested on: Burkholderia mallei (BM; Gram-negative); settings: read-out: MIC BM
[4] = tested on: Burkholderia pseudomallei (BP; Gram-negative); settings: read-out: MIC BP
[5] = tested on: Yersinia pestis (YP; Gram-negative); settings: read-out: MIC YP
[6] = tested on: Bacillus anthracis (BA; Gram-positive); settings: read-out: MIC BA

Compound | MIC [1] | MIC [2] | MIC [3] | MIC [4] | MIC [5] | MIC [6]
CNCCOc1c2[nH]c3ccc(F)cc3c2cc2c1[nH]c1ccc(F)cc12 | 0.5 µg/mL (≈ 1.37 µM) | 0.5 µg/mL (≈ 1.37 µM) | 4 µg/mL (≈ 10.9 µM) | 16 µg/mL (≈ 43.8 µM) | 8 µg/mL (≈ 21.9 µM) | 1 µg/mL (≈ 2.74 µM)
Cc1c2[nH]c3ccc(F)cc3c2cc2c1[nH]c1ccc(F)cc12 | 0.5 µg/mL (≈ 1.63 µM) | 1 µg/mL (≈ 3.26 µM) | > 16 µg/mL | > 16 µg/mL | > 16 µg/mL | 0.5 µg/mL (≈ 1.63 µM)
Fc1ccc2[nH]c3c(OCCN4CCCC4)c4[nH]c5ccc(F)cc5c4cc3c2c1 | 0.5 µg/mL (≈ 1.23 µM) | 1 µg/mL (≈ 2.47 µM) | > 16 µg/mL | > 16 µg/mL | 8 µg/mL (≈ 19.7 µM) | 1 µg/mL (≈ 2.47 µM)
FC(F)(F)c1c2[nH]c3ccccc3c2cc2c1[nH]c1ccccc12 | 0.5 µg/mL (≈ 1.54 µM) | 2 µg/mL (≈ 6.17 µM) | > 16 µg/mL | > 16 µg/mL | > 16 µg/mL | 1 µg/mL (≈ 3.08 µM)
COc1c2[nH]c3ccc(F)cc3c2c(N2CCCC2)c2c1[nH]c1ccc(F)cc12 | 0.5 µg/mL (≈ 1.28 µM) | 2 µg/mL (≈ 5.11 µM) | > 16 µg/mL | > 16 µg/mL | > 16 µg/mL | 1 µg/mL (≈ 2.55 µM)
NCCCOc1c2[nH]c3ccc(F)cc3c2cc2c1[nH]c1ccc(F)cc12 | 0.5 µg/mL (≈ 1.37 µM) | 0.5 µg/mL (≈ 1.37 µM) | 8 µg/mL (≈ 21.9 µM) | 8 µg/mL (≈ 21.9 µM) | 2 µg/mL (≈ 5.47 µM) | 0.5 µg/mL (≈ 1.37 µM)
CN(C)CCOc1c2[nH]c3ccc(Cl)cc3c2cc2c1[nH]c1ccc(Cl)cc12 | 0.25 µg/mL (≈ 0.606 µM) | 0.5 µg/mL (≈ 1.21 µM) | 8 µg/mL (≈ 19.4 µM) | 16 µg/mL (≈ 38.8 µM) | 2 µg/mL (≈ 4.85 µM) | 0.5 to 1 µg/mL (≈ 1.21 to 2.43 µM)
CN(C)CCOc1c2[nH]c3ccc(F)cc3c2c(Br)c2c1[nH]c1ccc(F)cc12 | 0.25 µg/mL (≈ 0.545 µM) | 0.25 µg/mL (≈ 0.545 µM) | > 8 µg/mL | > 8 µg/mL | > 8 µg/mL | 0.25 µg/mL (≈ 0.545 µM)
NCCCOc1c2[nH]c3ccc(Cl)cc3c2cc2c1[nH]c1ccc(Cl)cc12 | 0.25 to 0.5 µg/mL (≈ 0.628 to 1.26 µM) | 0.5 µg/mL (≈ 1.26 µM) | 4 µg/mL (≈ 10 µM) | 8 µg/mL (≈ 20.1 µM) | 2 µg/mL (≈ 5.02 µM) | 0.5 µg/mL (≈ 1.26 µM)
NCCOc1c2[nH]c3ccc(Cl)cc3c2cc2c1[nH]c1ccc(Cl)cc12 | 0.5 µg/mL (≈ 1.3 µM) | 0.5 µg/mL (≈ 1.3 µM) | 4 µg/mL (≈ 10.4 µM) | 8 µg/mL (≈ 20.8 µM) | 2 µg/mL (≈ 5.2 µM) | 2 µg/mL (≈ 5.2 µM)
CN(C)CCCc1c2[nH]c3ccc(F)cc3c2cc2c1[nH]c1ccc(F)cc12 | 1 µg/mL (≈ 2.65 µM) | 1 µg/mL (≈ 2.65 µM) | 16 µg/mL (≈ 42.4 µM) | > 16 µg/mL | 8 µg/mL (≈ 21.2 µM) | 1 µg/mL (≈ 2.65 µM)
NC1CCN(CCCOc2c3[nH]c4ccc(Cl)cc4c3cc3c2[nH]c2ccc(Cl)cc23)CC1 | 1 µg/mL (≈ 2.08 µM) | 1 µg/mL (≈ 2.08 µM) | 16 µg/mL (≈ 33.2 µM) | > 16 µg/mL | 4 µg/mL (≈ 8.31 µM) | 2 µg/mL (≈ 4.15 µM)
OC1CCN(CCCOc2c3[nH]c4ccc(F)cc4c3cc3c2[nH]c2ccc(F)cc23)C1 (stereo not drawn) | 0.5 µg/mL (≈ 1.15 µM) | 0.251 µg/mL (≈ 0.576 µM) | 8 µg/mL (≈ 18.4 µM) | 8 µg/mL (≈ 18.4 µM) | 8 µg/mL (≈ 18.4 µM) | 0.5 µg/mL (≈ 1.15 µM)
Clc1ccc2[nH]c3c(OCCCNC4CCNCC4)c4[nH]c5ccc(Cl)cc5c4cc3c2c1 | 1 µg/mL (≈ 2.08 µM) | 1 µg/mL (≈ 2.08 µM) | 4 µg/mL (≈ 8.31 µM) | 8 µg/mL (≈ 16.6 µM) | 2 µg/mL (≈ 4.15 µM) | 1 µg/mL (≈ 2.08 µM)
N[C@H]1CCN(CCCOc2c3[nH]c4ccc(Cl)cc4c3cc3c2[nH]c2ccc(Cl)cc23)C1 | 0.5 µg/mL (≈ 1.07 µM) | 0.25 µg/mL (≈ 0.535 µM) | > 8 µg/mL | > 8 µg/mL | 2 µg/mL (≈ 4.28 µM) | 0.5 µg/mL (≈ 1.07 µM)
C[N+](C)(C)CCOc1c2[nH]c3ccc(F)cc3c2cc2c1[nH]c1ccc(F)cc12.[I-] | 1 µg/mL | 2 µg/mL | 8 µg/mL | 8 µg/mL | > 8 µg/mL | 0.5 µg/mL

Compound | MIC [1] | MIC [2] | MIC [3] | MIC [4] | MIC [5] | MIC [6]
Nc1nnn(CCCOc2c3[nH]c4ccc(Cl)cc4c3cc3c2[nH]c2ccc(Cl)cc23)n1 | 1 µg/mL (≈ 2.14 µM) | 1 µg/mL (≈ 2.14 µM) | > 8 µg/mL | > 8 µg/mL | > 8 µg/mL | 0.5 µg/mL (≈ 1.07 µM)
Nc1nnnn1CCCOc1c2[nH]c3ccc(Cl)cc3c2cc2c1[nH]c1ccc(Cl)cc12 | 1 µg/mL (≈ 2.14 µM) | 0.5 µg/mL (≈ 1.07 µM) | > 8 µg/mL | > 8 µg/mL | > 8 µg/mL | 0.5 µg/mL (≈ 1.07 µM)
Nc1nc(N)n(CCCOc2c3[nH]c4ccc(Cl)cc4c3cc3c2[nH]c2ccc(Cl)cc23)n1 | 1 µg/mL (≈ 2.08 µM) | 1 µg/mL (≈ 2.08 µM) | > 8 µg/mL | > 8 µg/mL | 8 µg/mL (≈ 16.7 µM) | 0.5 to 1 µg/mL (≈ 1.04 to 2.08 µM)
Clc1ccc2[nH]c3c(OC4CCNC4)c4[nH]c5ccc(Cl)cc5c4cc3c2c1 (stereo not drawn) | 0.25 to 1 µg/mL (≈ 0.609 to 2.44 µM) | 0.25 µg/mL (≈ 0.609 µM) | 2 µg/mL (≈ 4.87 µM) | 4 µg/mL (≈ 9.75 µM) | 1 µg/mL (≈ 2.44 µM) | 0.5 to 1 µg/mL (≈ 1.22 to 2.44 µM)
Clc1ccc2[nH]c3c(OCCCc4nnn[nH]4)c4[nH]c5ccc(Cl)cc5c4cc3c2c1 | 1 µg/mL (≈ 2.22 µM) | 1 µg/mL (≈ 2.22 µM) | > 8 µg/mL | > 8 µg/mL | > 8 µg/mL | 0.5 µg/mL (≈ 1.11 µM)
Nc1nnc(N)n1CCCOc1c2[nH]c3ccc(Cl)cc3c2cc2c1[nH]c1ccc(Cl)cc12 | 1 µg/mL (≈ 2.08 µM) | 1 µg/mL (≈ 2.08 µM) | > 8 µg/mL | > 8 µg/mL | 4 µg/mL (≈ 8.33 µM) | 1 µg/mL (≈ 2.08 µM)
OC1CCN(CCOc2c3[nH]c4ccc(F)cc4c3cc3c2[nH]c2ccc(F)cc23)CC1 | 0.5 µg/mL (≈ 1.15 µM) | 1 µg/mL (≈ 2.3 µM) | 8 µg/mL (≈ 18.4 µM) | > 8 µg/mL | 4 µg/mL (≈ 9.19 µM) | 0.5 µg/mL (≈ 1.15 µM)
CN(C)CCOc1c2[nH]c3cc(F)ccc3c2cc2c1[nH]c1cc(F)ccc12 | 0.5 µg/mL (≈ 1.32 µM) | 0.5 µg/mL (≈ 1.32 µM) | > 8 µg/mL | > 8 µg/mL | > 8 µg/mL | 1 µg/mL (≈ 2.64 µM)
CCOC(=O)c1ccc2[nH]c3c(OCCN)c4[nH]c5ccc(C(=O)OCC)cc5c4cc3c2c1 | 1 µg/mL (≈ 2.18 µM) | 1 µg/mL (≈ 2.18 µM) | > 8 µg/mL | > 8 µg/mL | > 8 µg/mL | 2 µg/mL (≈ 4.35 µM)
Fc1ccc2[nH]c3c(OC4CCNCC4)c4[nH]c5ccc(F)cc5c4cc3c2c1 | ≤ 0.25 µg/mL | ≤ 0.25 µg/mL | 4 µg/mL (≈ 10.2 µM) | 8 µg/mL (≈ 20.4 µM) | 8 µg/mL (≈ 20.4 µM) | ≤ 0.25 µg/mL
Clc1ccc2[nH]c3c(OCC4CCNCC4)c4[nH]c5ccc(Cl)cc5c4cc3c2c1 | 0.5 µg/mL (≈ 1.14 µM) | ≤ 0.25 µg/mL | 8 µg/mL (≈ 18.2 µM) | > 8 µg/mL | 2 µg/mL (≈ 4.56 µM) | 0.5 µg/mL (≈ 1.14 µM)
CC/N=C(/NCCCOc1c2[nH]c3ccc(F)cc3c2cc2c1[nH]c1ccc(F)cc12)NCCCN(C)C | ≤ 0.25 µg/mL | 0.5 µg/mL (≈ 0.96 µM) | 4 µg/mL (≈ 7.68 µM) | 8 µg/mL (≈ 15.4 µM) | 4 µg/mL (≈ 7.68 µM) | ≤ 0.25 µg/mL
Clc1ccc2[nH]c3c(OCC4CCCN4)c4[nH]c5ccc(Cl)cc5c4cc3c2c1 (stereo not drawn) | 0.5 µg/mL (≈ 1.18 µM) | 0.5 µg/mL (≈ 1.18 µM) | 4 µg/mL (≈ 9.43 µM) | 8 µg/mL (≈ 18.9 µM) | 1 µg/mL (≈ 2.36 µM) | 1 µg/mL (≈ 2.36 µM)
C/N=C(\NC)NCCCOc1c2[nH]c3ccc(Cl)cc3c2cc2c1[nH]c1ccc(Cl)cc12 | 1 µg/mL (≈ 2.13 µM) | 0.5 µg/mL (≈ 1.07 µM) | 4 µg/mL (≈ 8.54 µM) | 4 µg/mL (≈ 8.54 µM) | 1 µg/mL (≈ 2.13 µM) | 0.5 µg/mL (≈ 1.07 µM)
NCCOc1c2[nH]c3ccc(F)cc3c2cc2c1[nH]c1ccc(F)cc12 | 2 µg/mL (≈ 5.69 µM) | 1 µg/mL (≈ 2.85 µM) | 8 µg/mL (≈ 22.8 µM) | 16 µg/mL (≈ 45.5 µM) | 4 µg/mL (≈ 11.4 µM) | 4 µg/mL (≈ 11.4 µM)
Clc1ccc2[nH]c3c(O[C@@H]4CCNC4)c4[nH]c5ccc(Cl)cc5c4cc3c2c1 | ≤ 0.25 µg/mL | ≤ 0.25 µg/mL | 2 µg/mL (≈ 4.87 µM) | > 8 µg/mL | 1 µg/mL (≈ 2.44 µM) | ≤ 0.25 µg/mL

From patent publication US8399502B2, “Analogs of indole-3-carbinol and their use as agents against infection” (priority 2008, dated 2013)
